Experimental data taken from patent US10836735B2, “Compositions and methods for treating cancers” (CEDARS-SINAI MEDICAL CENTER, priority 2014, dated 2020).

Assays:
[1] = system: BxPC-3 pancreatic cancer cell line; assay: Cell survival by MTT assay; assay type: cell-based
Method: Thus, the effect of ALB-185357 (a dual inhibitor of HDAC and GSK3β) represents an additional synergism to that observed with the combination of individual agents.
BxPC-3 pancreatic cancer cells were cultured in the presence or absence of different doses of ALB-188540 or ALB-185643 for 72 and cell survival measured by MTT assay.

KPC mice = assay: Survival of KPC mice with pancreatic adenocarcinoma; assay type: in vivo; settings: 5 mg/Kg ip 3 times per week from age 8 weeks until death
Method: KPC mice, which have Kras and p53 mutations and spontaneously develop pancreatic adenocarcinoma, were ip injected 3 times per week with 5 mg/Kg of ALB185357 from age 8 weeks until death.

[2] = system: MIA PaCa-2 pancreatic cancer cell line; assay: Cell invasion in Matrigel Invasion Chambers; assay type: cell-based; settings: MIA PaCa-2, Matrigel Invasion Chambers
Method: (§1) Cells were cultured in the presence or absence of different doses of ALB-185357 for 72 and protein levels measured by Western (FIG. 22A) and cell invasion measured in Matrigel Invasion Chambers (FIG. 22B).

Raji lymphoma cells = assay: Cell survival by counting cell number; assay type: cell-based; settings: 72
Method: (§2) Cells were cultured in the presence or absence of different doses of ALB-185357 for 72 and cell survival measured by MTT assay (FIGS. 17 and 18) or by counting cell number (FIG. 19).

[3] = system: hepatocellular carcinoma HepG2 cells; assay: Cell survival by MTT assay; assay type: cell-based; settings: HepG2, 72
Method: as §2

[4] = system: BT474 breast cancer cells; assay: Cell survival by MTT assay; assay type: cell-based; settings: BT474, 72
Method: as §2

[5] = system: MIA PaCa-2 pancreatic cancer cell line; assay: Western: EMT and cancer stemness markers; assay type: cell-based; settings: MIA PaCa-2, 72
Method: as §1

[6] = system: MIA PaCa-2 pancreatic cancer cell line; assay: Western: histone acetylation and GSK-3β phosphorylation/inhibition; assay type: cell-based; settings: MIA PaCa-2, 72
Method: Cells were cultured in the presence or absence of different doses of ALB-185357 for 72 and protein levels measured by Western.

[7] = system: MIA PaCa-2 pancreatic cancer cell line; assay: Apoptosis by DNA fragmentation; assay type: cell-based; settings: MIA PaCa-2, 72
Method: Dashed lane represents the expected additive effect (Significance between expected additive effect and observed effect is achieved at 2.4 uM).
MIA PaCa-2 cells were cultured in the presence or absence of different doses of ALB-185357 for 72 and apoptosis assessed by measuring DNA fragmentation.
MIA PaCa-2 cells were cultured in the presence or absence of different doses of ALB-185357 or gemcitabine at the low dose of 1 ng/ml for 72 and apoptosis assessed by measuring DNA fragmentation.

[8] = system: normal pancreatic ductal cells; assay: Cell survival of normal cells by MTT assay; assay type: cell-based; settings: 72
Method: Cells were cultured in the presence or absence of different doses of ALB-185357 for 72 and cell survival measured by MTT assay.

[9] = system: MIA PaCa-2 pancreatic cancer cells; assay: Cell survival with GSK3β inhibitor, HDAC inhibitor and combination; assay type: cell-based; settings: FIGS. 5-7
Text: FIG. 7 depicts, in accordance with various embodiments of the invention, effect of combination of GSK3β inhibitor tideglusib and HDAC inhibitor Saha on cell survival in pancreatic cancer cells MIA PaCa-2.

[10] = system: MIA PaCa-2 pancreatic cancer cells; assay: EMT markers (vimentin, Twist, Snail) in pancreatic cancer cells; assay type: cell-based; settings: FIG. 4
Text: FIG. 4 depicts, in accordance with various embodiments of the invention, effect of HDAC, GSK3β inhibitions combined with gemcitabine on EMT in MIA PaCa-2 pancreatic cancer cells.
Inhibition of GSK3β induces up-regulation of EMT as shown by a measure of vimentin which is an accepted measurement for EMT (FIG. 4). This effect of GSK3β was prevented by the HDAC inhibitor Saha (FIG. 4). […] A combination of the two inhibitors with gemcitabine, a chemotherapeutic agent used in pancreatic cancer led to a complete inhibition of the EMT marker vimentin and its transcription factors (FIG. 4).

pdx1-Cre-LSL-Kras mice = assay: Mouse model of pancreatic cancer (pdx1-Cre-LSL-Kras) exposed to cigarette smoke: PanIN lesions and fibrosis; assay type: in vivo; settings: Saha 50 mg/Kg 5 times per week, TDZD-8 4 mg/Kg 3 times per week, 6 weeks; compared to control group
Method: FIG. 2 depicts, in accordance with various embodiments of the invention, effect of HDAC inhibitor Saha (50 mg/Kg) and GSK3β inhibitor (4 mg/Kg) alone and in combination on reducing PanIN lesion formation.
FIG. 3 depicts, in accordance with various embodiments of the invention, effect of HDAC inhibitor Saha (50 mg/Kg) and GSK3β inhibitor (4 mg/Kg) alone and in combination on fibrosis.
The inventors used a mouse model of pancreatic cancer where an oncogene call mutant K-ras is expressed in the pancreas (pdx1-Cre-LSL-Kras). These mice were exposed to cigarette smoke for 6 weeks in smoking chambers. Groups of mice were injected with GSK3β inhibitor TDZD-8 (4 mg/Kg, 3 times per week) and/or HDAC inhibitor Saha (50 mg/Kg; 5 times per week) for 6 weeks.
The same effect was observed when measuring fibrosis with collagen staining. Fibrosis is a measure of cancer activity.

| SMILES | concentration at which significance of the effect on cell survival was achieved ([1]; BxPC-3, 72 h, MTT) | effect on cell survival compared with combination of saha and tideglusib ([1]; BxPC-3, 72 h, same concentration) | cell survival (MTT) ([1]; BxPC-3, cultured 72 h) | increase of mice survival (KPC mice) | survival of animals with advance pancreatic cancer (KPC mice) | cell invasion [2] | cell survival (cell numbers) (Raji lymphoma cells) | cell survival (MTT) [3] | cell survival (MTT) [4] | expression of EMT markers N-cadherin and twist (Western) [5] | expression of cancer stemness marker Sox2 (Western) [5] | GSK-3β phosphorylation/inhibition (Western) [6] | histone acetylation (Western) [6] | apoptosis (DNA fragmentation level) [7] | dose at which significance of apoptosis increase was achieved [7] | cell survival of normal cells (MTT) [8] | cell survival [9] | EMT marker vimentin [10] | transcription factors regulating EMT (Twist and Snail) [10] | formation of pancreatic intraepithelial neoplasia (PanIN) lesions (pdx1-Cre-LSL-Kras mice) |
| --- | --- | --- | --- | --- | --- | --- | --- | --- | --- | --- | --- | --- | --- | --- | --- | --- | --- | --- | --- | --- |
| COc1ccc(Nc2nnc(-c3ccc(C(=O)NO)cc3)o2)cc1 [ALB-185357] | 300 nM | greater than the combination | dose-dependently decreased cell survival | at least 50% | improves survival | decreases the invasion | dose-dependently decreases cell survival | dose-dependently decreases cell survival | dose-dependently decreases cell survival | decreases expression | decreases expression | dose-dependently up-regulates | dose-dependently up-regulates | dose-dependently increases apoptosis | 300 nM | does not affect cell survival | – | – | – | – |
| O=c1sn(-c2cccc3ccccc23)c(=O)n1Cc1ccccc1 [tideglusib, 4-Benzyl-2-(naphthalen-1-yl)-1,2,4-thiadiazolidine-3,5-dione] | – | – | – | – | – | – | – | – | – | – | – | – | – | – | – | – | dose-dependent effect | – | – | – |
| O=C(CCCCCCC(=O)Nc1ccccc1)NO [Saha, subcroylanilide hydroxamic acid] | – | – | – | – | – | – | – | – | – | – | – | – | – | – | – | – | dose-dependent effect | prevented | inhibited | significantly decreased formation |
